How the values were obtained:
Assay in all cases: relative viability (nuclei count vs DMSO), 5 days (fraction); higher = more cells survive
[1] = tested on: NCI-H2342
How it was run: (§1)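 Relative viability is defined as nuclei in treated wells over nuclei in vehicle wells. Duplicate plates were run and medians reported. Lung cancer cell lines in 1536-well plates were dosed by pin tool one day after seeding, with one drug or with a fixed anchor-drug dose plus five library-drug doses (not always all listed) in √10 steps, and nuclei were counted after 5 days.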

[2] = tested on: HCC-78
How it was run: as §1

[3] = tested on: NCI-H1755
How it was run: as §1

[4] = tested on: SK-LU-1
How it was run: as §1

[5] = tested on: UMC-11
How it was run: as §1

[6] = tested on: HCC-366
How it was run: as §1

[7] = tested on: LCLC-97TM1
How it was run: as §1

[8] = tested on: NCI-H1792
How it was run: as §1

[9] = tested on: NCI-H358
How it was run: as §1

[10] = tested on: NCI-H2170
How it was run: as §1

[11] = tested on: NCI-H460
How it was run: as §1

[12] = tested on: LXF-289
How it was run: as §1

[13] = tested on: EPLC-272H
How it was run: as §1

[14] = tested on: NCI-H2085
How it was run: as §1

[15] = tested on: NCI-H1915
How it was run: as §1

[16] = tested on: LC-2-ad
How it was run: as §1

[17] = tested on: COR-L 105
How it was run: as §1

[18] = tested on: NCI-H1975
How it was run: as §1

[19] = tested on: A-427
How it was run: as §1

[20] = tested on: SW 900
How it was run: as §1

[21] = tested on: NCI-H1793
How it was run: as §1

[22] = tested on: LU99A
How it was run: as §1

[23] = tested on: HOP-62
How it was run: as §1

[24] = tested on: NCI-H1944
How it was run: as §1

For CC(C)Oc1cc(Nc2nc(N[C@@H](C)c3ccc(F)cn3)ncc2Cl)n[nH]1 [AZ23] + Cc1nc(Nc2ncc(C(=O)Nc3c(C)cccc3Cl)s2)cc(N2CCN(CCO)CC2)n1 [Dasatinib] (partner 0.075 µM), the relative viability ([1]; first compound 0.01 µM) was 0.299, the relative viability ([1]; first compound 0.03162 µM) was 0.31 and the relative viability ([1]; first compound 0.3162 µM) was 0.339. The relative viability ([2]; first compound 0.01 µM) was 0.323, the relative viability ([2]; first compound 0.03162 µM) was 0.381 and the relative viability ([2]; first compound 0.3162 µM) was 0.328. It also gave a relative viability ([3]; first compound 0.01 µM) of 0.456, a relative viability ([3]; first compound 0.03162 µM) of 0.488 and a relative viability ([3]; first compound 0.3162 µM) of 0.357. The relative viability ([4]; first compound 0.03162 µM) was 0.193, the relative viability ([4]; first compound 0.3162 µM) was 0.152 and the relative viability ([5]; first compound 0.01 µM) was 0.593. For the same compound, the relative viability ([5]; first compound 0.03162 µM) was 0.504, the relative viability ([5]; first compound 0.3162 µM) was 0.481 and the relative viability ([6]; first compound 0.01 µM) was 0.58. For the same compound, the relative viability ([6]; first compound 0.03162 µM) was 0.705, the relative viability ([6]; first compound 0.3162 µM) was 0.79 and the relative viability ([7]; first compound 0.01 µM) was 0.924. It also gave a relative viability ([7]; first compound 0.03162 µM) of 0.889, a relative viability ([7]; first compound 0.3162 µM) of 0.829 and a relative viability ([8]; first compound 0.01 µM) of 0.804. The relative viability ([8]; first compound 0.03162 µM) was 1.16, the relative viability ([8]; first compound 0.3162 µM) was 0.672 and the relative viability ([9]; first compound 0.01 µM) was 0.144. For the same compound, the relative viability ([9]; first compound 0.03162 µM) was 0.161, the relative viability ([9]; first compound 0.3162 µM) was 0.123 and the relative viability ([10]; first compound 0.01 µM) was 0.498. It also gave a relative viability ([10]; first compound 0.03162 µM) of 0.618, a relative viability ([10]; first compound 0.3162 µM) of 0.598 and a relative viability ([11]; first compound 0.01 µM) of 0.295. The relative viability ([11]; first compound 0.03162 µM) was 0.592, the relative viability ([11]; first compound 0.3162 µM) was 0.503 and the relative viability ([12]; first compound 0.01 µM) was 0.205. The relative viability ([12]; first compound 0.03162 µM) was 0.275, the relative viability ([12]; first compound 0.3162 µM) was 0.189 and the relative viability ([13]; first compound 0.01 µM) was 0.38. It also gave a relative viability ([13]; first compound 0.03162 µM) of 0.305, a relative viability ([13]; first compound 0.3162 µM) of 0.273 and a relative viability ([14]; first compound 0.01 µM) of 0.232. The relative viability ([14]; first compound 0.03162 µM) was 0.214, the relative viability ([14]; first compound 0.3162 µM) was 0.199 and the relative viability ([15]; first compound 0.01 µM) was 0.33. The relative viability ([15]; first compound 0.03162 µM) was 0.342, the relative viability ([15]; first compound 0.3162 µM) was 0.29 and the relative viability ([16]; first compound 0.01 µM) was 0.569. For the same compound, the relative viability ([16]; first compound 0.03162 µM) was 0.588, the relative viability ([16]; first compound 0.3162 µM) was 0.564 and the relative viability ([17]; first compound 0.01 µM) was 0.339. The relative viability ([17]; first compound 0.03162 µM) was 0.374, the relative viability ([17]; first compound 0.3162 µM) was 0.341 and the relative viability ([18]; first compound 0.01 µM) was 0.453. For the same compound, the relative viability ([18]; first compound 0.03162 µM) was 0.405, the relative viability ([18]; first compound 0.3162 µM) was 0.326 and the relative viability ([19]; first compound 0.01 µM) was 0.701. The relative viability ([19]; first compound 0.03162 µM) was 0.862, the relative viability ([19]; first compound 0.3162 µM) was 0.684 and the relative viability ([20]; first compound 0.01 µM) was 0.385. For the same compound, the relative viability ([20]; first compound 0.03162 µM) was 0.593, the relative viability ([20]; first compound 0.3162 µM) was 0.541 and the relative viability ([21]; first compound 0.01 µM) was 0.375. The relative viability ([21]; first compound 0.03162 µM) was 0.404, the relative viability ([21]; first compound 0.3162 µM) was 0.383 and the relative viability ([22]; first compound 0.01 µM) was 0.623. For the same compound, the relative viability ([22]; first compound 0.03162 µM) was 0.646, the relative viability ([22]; first compound 0.3162 µM) was 0.369 and the relative viability ([23]; first compound 0.01 µM) was 0.702. The relative viability ([23]; first compound 0.03162 µM) was 0.684, the relative viability ([23]; first compound 0.3162 µM) was 0.631 and the relative viability ([24]; first compound 0.01 µM) was 0.198. The relative viability ([24]; first compound 0.03162 µM) was 0.246 and the relative viability ([24]; first compound 0.3162 µM) was 0.208.

From the supplement of paper PMC10307832
